Reference: patent US20070134282A1, “Methods for inhibiting fungal pathogen infestation and propogation” (Stephen F. Austin State University, priority 2005, published 2007)
Values after ≈ are worked out from the molar mass of the structure shown. Like-named read-outs stand apart in the source and are kept apart here.

Assays:
Pestalotia guepinii [1] = experiment: mycelial growth inhibition on potato dextrose agar; format: cell-based; conditions: for inhibition at 50 µg/mL: 264 h, 50 μg/mL, day 11, read-out: colonies inhibited; for EC50: read-out: EC50 (effective concentration that caused 50% inhibition of mycelial growth); for MIC: read-out: MIC (minimal inhibitory concentration)
Fusarium avenaceum [2] = experiment: mycelial growth inhibition on potato dextrose agar; format: cell-based; conditions: in vitro; at the same concentrations as the dithiocarbamate (100 ppm)
Drechslera sp. = experiment: mycelial growth inhibition on potato dextrose agar; format: cell-based; conditions: for EC50: estimated; for inhibition at 50 µg/mL: 480 h, 50 μg/mL, day 20, read-out: colonies inhibited; for inhibiting fungus: at all experimental concentrations
Description: (§1) Alternaria alternata, Epicoccum nigrum, Pestalotia guepinii, Drechslera sp., and Fusarium avenaceum were isolated from infected leaves and roots of C. acuminata. The strains were cultured and maintained on potato dextrose agar (PDA) medium.
(§2) CPT, trifolin, and hyperoside (isolated from Camptotheca as above) were tested for their ability to inhibit these fungi, as compard with two classical fungicides, Bravo (active ingredient: chlorothalonil) and Maneb (active ingredient: manganous ethylenebis [dithiocarbamate]), as references. The concentrations of the conventional fungicides were those recommended by the manufacturers (Bravo: 10,000 μg/mL; Maneb: 3,000 μg/mL).
(§3) In addition to a negative control (0) and two fungicides as positive controls for each of the five isolated pathogens, seven levels of CPT were tested with each of the fungi and three levels of trifolin and hyperoside were tested with P. guepinii, Drechslera sp. and F. avenaceum, respectively (see FIG. 8).
(§4) Trifolin and hyperoside treatments were applied at concentrations of 50, 100, and 150 μg/mL, respectively. For all cultures, final concentrations were made in molten (50° C.) potato dextrose agar (Difco), and 10 mL aliquots were poured into Petri dishes (85 mm in diameter). Within 24 hours after pouring, each of the plates was inoculated with one of the five fungi. One 5×5 mm mycelial plug was cut from the actively growing front of a 2 week old colony, then placed with the inoculum side down in the center of each treatment plate. The cultures were incubated at 24° C. For all experiments, five replicate plates were inoculated for each treatment.
(§5) Mycelial growth on each plate was observed daily and recorded on a transparent film for the first two weeks, then recorded on the 16th, 20th, 23rd, and 28th days. Colony radii were measured along four vertical radial directions. The mean of the four measurements was calculated as the growth rate on each plate. Mean and standard error were calculated from the five replicates of each treatment. For each of the fungi, values of EC50 (effective concentration that caused 50% inhibition of mycelial growth) and MIC (the minimum inhibitory concentration) of each compound were estimated.

Fusarium avenaceum [3] = experiment: mycelial growth inhibition on potato dextrose agar; format: cell-based; conditions: for inhibition at 50 µg/mL / inhibition at 100 µg/mL: 672 h, day 28, read-out: inhibited fungal growth; for inhibition at 50 µg/mL: 50 μg/mL; for inhibition at 100 µg/mL: 100 μg/mL; for EC50: F. avenaceum, estimated, read-out: EC50 (effective concentration that caused 50% inhibition of mycelial growth); for inhibiting fungus: at all experimental concentrations; for inhibition at 10 µg/mL: read-out: inhibition of mycelial growth, CPT 10 μg/mL
Description: as §1, §2, §3, §4, §5

Botrytis cinerea = conditions: in vitro tests and TLC bioautography; Sridhar et al. (2003); cited from earlier work
F. verticillioides = conditions: cited from earlier work
Alternaria mali = conditions: mycelial growth; cited from earlier work
[4] = test system: F. oxysporum f.sp. lycopersici; conditions: mycelial growth; cited from earlier work
F. oxysporum f. sp. lini = conditions: 100 ppm (100 μg/mL); cited from earlier work
Alternaria alternata = experiment: mycelial growth inhibition on potato dextrose agar; format: cell-based
Description: as §1, §2, §3, §4, §5

Epicoccum nigrum = experiment: mycelial growth inhibition on potato dextrose agar; format: cell-based
Description: as §1, §2, §3, §4, §5

Pestalotia guepinii [5] = experiment: mycelial growth inhibition on potato dextrose agar; format: cell-based
Description: as §1, §2, §3, §4, §5

[6] = Drechslera sp., read-out: EC50 (effective concentration that caused 50% inhibition of mycelial growth)
[7] = at relatively higher concentrations

## O=c1c(O[C@@H]2O[C@H](CO)[C@H](O)[C@H](O)[C@H]2O)c(-c2ccc(O)c(O)c2)oc2cc(O)cc(O)c12 [hyperoside, quercetin-3-O-β-D-galactopyranoside]
Pestalotia guepinii [1]
  inhibition at 50 µg/mL: 53.8%
Pestalotia guepinii [1]; P. guepinii, estimated
  EC50: ~50 µg/mL (≈ 108 µM)
Pestalotia guepinii [1]; P. guepinii
  MIC: < 125 µg/mL
Fusarium avenaceum [2]
  inhibited growth: 70%
Drechslera sp.; 100 μg/mL, 28-day experiment
  growth inhibition: little growth by day 28
Drechslera sp.; 150 μg/mL
  growth inhibition: completely inhibited growth
Drechslera sp.; [6]
  EC50: < 50 µg/mL
Drechslera sp.; Drechslera
  inhibition at 50 µg/mL: 74.3%
Drechslera sp.
  inhibiting fungus: highly effective
Fusarium avenaceum [3]; 150 μg/mL
  growth inhibition: completely inhibited fungal growth during the first four weeks
Fusarium avenaceum [3]; Fusarium avenaceum
  inhibition at 50 µg/mL: 31.6%
  inhibition at 100 µg/mL: 72.6%
  EC50: 50 to 100 µg/mL (≈ 108 to 215 µM)
Fusarium avenaceum [3]
  inhibiting fungus: highly effective

## CC(C)=CCC/C(C)=C/CO [geraniol]
Botrytis cinerea
  minimum concentration (MIC): 160 µg/mL

## COc1cc([C@H]2OC[C@H]3[C@@H]2CO[C@H]3c2ccc(O)c(OC)c2)ccc1O (racemic) [(±) pinoresinol]
F. verticillioides
  MIC: 1,000 μg/mL

## O=c1c(O[C@@H]2O[C@H](CO)[C@H](O)[C@H](O)[C@H]2O)c(-c2ccc(O)cc2)oc2cc(O)cc(O)c12 [trifolin, kaempferol-3-O-β-D-galactopyranoside]
Pestalotia guepinii [1]
  inhibition at 50 µg/mL: 53.4%
Pestalotia guepinii [1]; P. guepinii, estimated
  EC50: ~50 µg/mL (≈ 112 µM)
Pestalotia guepinii [1]; P. guepinii
  MIC: < 125 µg/mL
Fusarium avenaceum [2]
  inhibited growth: 70%
Drechslera sp.; 100 μg/mL, 28-day experiment
  growth inhibition: totally controlled the fungus
Drechslera sp.; 150 μg/mL
  growth inhibition: completely inhibited growth
Drechslera sp.; [6]
  EC50: < 50 µg/mL
Drechslera sp.; Drechslera
  inhibition at 50 µg/mL: 76.1%
Drechslera sp.
  inhibiting fungus: highly effective
Fusarium avenaceum [3]; 150 μg/mL
  growth inhibition: totally controlled the fungus during the entire experiment
Fusarium avenaceum [3]; Fusarium avenaceum
  inhibition at 50 µg/mL: 35.8%
  inhibition at 100 µg/mL: 74.8%
  EC50: 50 to 100 µg/mL (≈ 112 to 223 µM)
Fusarium avenaceum [3]
  inhibiting fungus: highly effective

## COc1cc(C=O)ccc1O [Vanillin]
F. verticillioides
  MIC: 600 µg/mL (≈ 3940 µM)

## C/C=C\c1cc(OC)c(OC)cc1OC [β-Asarone]
Alternaria mali
  MIC: > 100 µg/mL
[4]
  MIC: > 100 µg/mL

## COc1cc(C=CC=O)ccc1O [4-hydroxy-3-methoxycinnamaldehyde]
F. verticillioides
  MIC: 400 µg/mL (≈ 2240 µM)

## CCN(CC)C(=S)[S-].[Na+] [N,N-diethyldithiocarbamic acid sodium salt]
F. oxysporum f. sp. lini
  inhibit growth: 7-30%

## CC[C@@]1(O)C(=O)OCc2c1cc1n(c2=O)Cc2cc3ccccc3nc2-1 [CPT, 4(S)-4-ethyl-4-hydroxy-1H-pyrano-(3′,4′:6,7) indolizino (1,2,-b) quinoline-3,14 (4H,12H)-dione]
Pestalotia guepinii [1]
  EC50: ~10 µg/mL (≈ 28.7 µM)
  MIC: 125 µg/mL (≈ 359 µM)
Fusarium avenaceum [2]
  inhibited growth: 70%
Alternaria alternata; Alternaria alternata, read-out: EC50 (effective concentration that caused 50% inhibition of mycelial growth)
  EC50: < 25 µg/mL
Alternaria alternata; Alternaria alternata, A. alternata, read-out: MIC (minimal inhibitory concentration)
  MIC: 75 µg/mL (≈ 215 µM)
Alternaria alternata; Alternaria alternata, CPT 10 μg/mL, read-out: colonies inhibited
  inhibition at 10 µg/mL: 41 to 66%
Alternaria alternata; CPT 10 μg/mL, control 13 days
  days for mycelium to completely cover the agar surface: 23 days
Alternaria alternata; CPT 25 μg/mL
  day colonies started to grow: second day
Alternaria alternata; CPT 25 μg/mL, 28 days vs. 13 days for control
  colony expansion reduced: 215%
Alternaria alternata; CPT 25 μg/mL, control 13 days
  days to cover the agar surface: 28 days
Alternaria alternata; CPT 25 μg/mL, day 13
  colonies smaller than controls: 52.8%
Alternaria alternata; CPT 75 μg/mL and above
  control of fungal growth: totally controlled
Alternaria alternata; [7]
  suppressing growth: effective
Epicoccum nigrum; CPT 10 μg/mL and 25 μg/mL, 28 days vs. 10 days for control
  delayed mycelial growth: 280%
Epicoccum nigrum; CPT 10 μg/mL and 25 μg/mL, control 10 days
  days to cover agar surface: 28 days
Epicoccum nigrum; CPT 10 μg/mL, day 10
  colonies smaller than controls: 65%
Epicoccum nigrum; CPT 25 μg/mL, day 15
  colony radii: 20 mm
Epicoccum nigrum; CPT 50 μg/mL
  day growth began: 8th day
Epicoccum nigrum; CPT 50 μg/mL, day 20
  colony radii: 8 mm
Epicoccum nigrum; CPT 75 μg/mL and higher
  growth inhibition: totally inhibited growth
Epicoccum nigrum; Epicoccum nigrum, read-out: EC50 (effective concentration that caused 50% inhibition of mycelial growth), E. nigrum, estimated
  EC50: ~10 µg/mL (≈ 28.7 µM)
Epicoccum nigrum; Epicoccum nigrum, CPT 50 μg/mL, read-out: inhibited growth
  inhibition at 50 µg/mL: > 90%
Epicoccum nigrum; Epicoccum nigrum, E. nigrum, read-out: MIC (minimal inhibitory concentration)
  MIC: 75 µg/mL (≈ 215 µM)
Epicoccum nigrum; [7]
  suppressing growth: effective
Drechslera sp.; CPT 100 μg/mL and higher
  growth inhibition: completely inhibited fungal growth
Drechslera sp.; CPT at all experimental levels (10-150 μg/mL) vs Bravo 10,000 μg/mL
  inhibition compared with Bravo: greater inhibition rates than Bravo
Drechslera sp.; Drechslera, read-out: EC50 (effective concentration that caused 50% inhibition of mycelial growth), Drechslera sp.
  EC50: ~10 µg/mL (≈ 28.7 µM)
Drechslera sp.; Drechslera, read-out: MIC (minimal inhibitory concentration)
  MIC: 100 µg/mL (≈ 287 µM)
Drechslera sp.
  inhibiting fungus: highly effective
Fusarium avenaceum [3]; CPT 125 and 150 μg/mL
  growth inhibition: completely inhibited growth
Fusarium avenaceum [3]; Fusarium avenaceum, read-out: MIC (minimal inhibitory concentration; complete inhibition)
  MIC: 125 µg/mL (≈ 359 µM)
Fusarium avenaceum [3]; Fusarium avenaceum, read-out: inhibited the rate of mycelial growth, CPT 30 μg/mL
  inhibition at 30 µg/mL: > 60%
Fusarium avenaceum [3]; Fusarium avenaceum, first several days of the experiment
  inhibition at 10 µg/mL: 70 to 80%
Fusarium avenaceum [3]; Fusarium avenaceum, later stages
  inhibition at 10 µg/mL: ~40%
Fusarium avenaceum [3]
  inhibiting fungus: highly effective
Pestalotia guepinii [5]; CPT 10 μg/mL, 11th day
  reduced mycelial growth: 43.5%
Pestalotia guepinii [5]; CPT 10 μg/mL, control 11th day
  day colonies reached the petri dish margins: 20 days
Pestalotia guepinii [5]; CPT 125 μg/mL and above
  growth inhibition: totally inhibited growth
